The values below are quoted from earlier work in US20170240913A1, “Methods and Materials for Producing Coreless Fruit” (The New Zealand Institute for Plant and Food Research …, priority 2014, published 2017).

Molecules are shown by their SMILES.

This data set concerns frost-damaged Bramley's Seedling. As to conditions: frost-damaged Bramley's Seedling (triploid, partially self-fertile).

As to `C=C1C[C@]23C[C@@]1(O)CC[C@H]2[C@@]12C=C[C@H](O)[C@@](C)(C(=O)O1)[C@H]2[C@@H]3C(=O)O` [GA3], the parthenocarpy result was “not effective”.

For the compound `c1ccc(CNc2ncnc3c2ncn3C2CCCCO2)cc1` (centres unmarked) [SD8339], the parthenocarpy result is given as “no additional benefits”.
